Converted amounts (≈) assume the structure as drawn. The source made the active and inactive calls. The rule behind the calls is not given here.
Legend:
Escherichia coli [1] = test: Inhibition of Escherichia coli MurD assessed as residual activity at 250 uM by malachite green assay
[2] = Inhibition of Escherichia coli MurD assessed as blockade of addition of D-[14C]Glu to UDP-MurNAc-L-Ala
Escherichia coli [3] = test: Antibacterial activity against Escherichia coli 1411 after 18 hrs by broth microdilution method; type: functional, organism-based
Escherichia coli [4] = test: Antibacterial activity against AcrAB deficient Escherichia coli SM1411 after 18 hrs by broth microdilution method; type: functional, organism-based
Staphylococcus aureus = test: Antibacterial activity against Staphylococcus aureus 8325-4 after 18 hrs by broth microdilution method; type: functional
Escherichia coli [5] = test: Inhibition of Escherichia coli MurF assessed as residual activity at 250 uM by malachite green assay
[6] = Inhibition of Escherichia coli MurF

SMILES	Activity (Escherichia coli [1]) [%]	IC50 [2] [µM]	Activity (Escherichia coli [5]) [%]	IC50 [6] [µM]	MIC (Staphylococcus aureus) [µg/mL]	Activity (Escherichia coli [3])	Activity (Escherichia coli [4])	Activity (Staphylococcus aureus)
CSc1ccc2c(c1)c(CCN)c(C)n2Cc1ccccc1Cl	–	–	< 50	–	–	inactive	inactive	inactive
Oc1nc(S)nc(SCc2c(Cl)c(Cl)c(Cl)c(Cl)c2Cl)n1	–	–	< 50	63	128 (≈ 302 µM)	–	Active	–
O=C(O)C1C(C(=O)O)C2(Cl)C(Cl)=C(Cl)C1(Cl)C2(Cl)Cl (stereo unspecified)	< 50	–	–	–	–	inactive	inactive	inactive
FC(F)(F)c1nc2ccc(SSc3ccc4nc(C(F)(F)F)[nH]c4c3)cc2[nH]1	–	–	< 50	–	–	inactive	inactive	inactive
CCCCCCCCCCCCN(C)C	–	–	< 50	–	–	inactive	inactive	inactive
Sc1nnc(SCc2ccccc2Cl)c2nc[nH]c12	–	–	< 50	–	–	inactive	inactive	inactive
CC1C2C=CC1C(c1c3ccc(=O)c(O)c-3oc3c(O)c(O)ccc13)C2C(=O)O (stereo unspecified)	–	43	–	–	–	inactive	inactive	inactive

The next lines start with results.

Activity (Escherichia coli [1]) [%]	IC50 [2] [µM]	Activity (Escherichia coli [5]) [%]	IC50 [6] [µM]	MIC (Staphylococcus aureus) [µg/mL]	SMILES	Activity (Escherichia coli [3])	Activity (Escherichia coli [4])	Activity (Staphylococcus aureus)
< 50	10	–	–	–	O=C(O)c1c(Br)c(Br)c(Br)c(Br)c1C1c2ccc(O)cc2Oc2cc(O)ccc21	inactive	inactive	inactive
–	–	< 50	–	–	Oc1ccccc1C(Sc1nc2ccccc2s1)Sc1nc2ccccc2s1	inactive	inactive	inactive
< 50	34	–	–	–	O=C(O)c1cc2c(cc1S(=O)(=O)O)C1C(C3C2C2(Cl)C(Cl)=C(Cl)C3(Cl)C2(Cl)Cl)C2(Cl)C(Cl)=C(Cl)C1(Cl)C2(Cl)Cl (stereo unspecified)	inactive	inactive	inactive
–	–	< 50	–	–	Nc1c(S(=O)(=O)O)cc(Nc2cccc(S(N)(=O)=O)c2)c2c1C(=O)c1ccccc1C2=O	inactive	inactive	inactive
–	–	< 50	–	–	O=C(O)c1c(Cl)c(Cl)c(Cl)c(Cl)c1C(=O)Nc1ccc2cn[nH]c2c1	inactive	inactive	inactive
–	–	< 50	–	–	O=S(=O)(O)c1cc(/N=[N+](\[O-])c2cc(S(=O)(=O)O)c3ccccc3c2)cc2ccccc12	inactive	inactive	inactive
–	–	< 50	–	–	CCOc1ccc2c(c1)C=C/C(=C/C=C1\C=C(C)c3cccnc3C1=O)N2C	inactive	inactive	inactive
–	–	< 50	–	–	O=S(=O)(O)c1ccc2c(/N=N/c3c(O)ccc4ccccc34)cccc2c1	inactive	inactive	inactive
< 50	47	–	–	–	O=C(O)/C=C/c1c2ccc(=O)c(O)c-2oc2c(O)c(O)ccc12	inactive	inactive	inactive
–	–	< 50	–	–	O=C1/C(=N/CCc2cc(Br)c(O)c(Br)c2)C=C(O)c2cccnc21	inactive	inactive	inactive

Reference: ChEMBL document CHEMBL1152765, “Discovery of new inhibitors of the bacterial peptidoglycan biosynthesis enzymes MurD and MurF by structure-based virtual screening” (Bioorg Med Chem, 2009)
